{"source": "patent EP4799701A2", "about": "“PYRIMID-2-YL-PYRAZOLE COMPOUNDS AS IRAK INHIBITORS” (Rigel Pharmaceuticals, Inc., priority 2022, dated 2023)", "assay_type_in_all_cases": "cell-based", "key": {"TLR4-induced IL-23": {"tested_on": "TLR4-induced IL-23", "test": "IL23-p19 ELISA, dendritic cells (PBMC-derived), LPS stimulated", "conditions": "human primary dendritic cells (DC); result in words", "protocol": "Compound Screening Using DC Cells\n• Human PBMC cells (All Cells, Cat No. PB002) • RPMI growth media containing 10% FBS • IFNγ (Peprotech, Cat No. 300-02) • GMCSF (Peprotech, Cat No. 300-03) and IL4 (Peprotech Cat No. 200-04) • White clear bottom 96 well plates (Fisher, Cat No. 07-200-587, Corning #3903) • LPS (Make 2.5 mg/ml Stock in PBS) from Sigma Aldrich (Cat No. L2018-5MG) • Cell Titer Glo reagent (Promega, Cat No. G7573) • Positive controls, IKK2VI inhibitor (Calbiochem, Cat No. 401483)\nHuman PBMC cells (400 million) obtained from the vendor were transferred into a T-175 flask containing 15 ml RPMI media (10% FBS) and incubate for 2 hours at 37 °C. […]\n155 µl of the supernatant was harvested from each well carefully (without the tip touching the bottom of the well) and to the remaining 50 µl / well of the cell culture plate was added 50 µl of Cell Titer Glo reagent. The mixture was incubated for 1-2 minutes on a shaker and the plate was read for luminescence intensity to determine the compound cytotoxicity. […]\nAfter 45 minutes, the plates were washed with TBST 4X and 100 ul / well Super Signal ELISA Pico Chemiluminescent Substrate from Pierce (3.5 ml A + 3.5 ml B + 3.5 ml MQ water) was added. The plates were shaken for 1-2 minutes then read on a plate reader. […]"}, "TLR7-induced TNF-α": {"tested_on": "TLR7-induced TNF-α", "test": "TLR7-induced TNF-α in human PBMC (resiquimod)", "conditions": "human PBMCs; result in words", "protocol": "Assay Protocol: TLR7-induced TNF-α in human Peripheral Blood Mononuclear Cells (PBMC).\n• Corning™ Costar™ 96-Well, Cell Culture-Treated, U-Shaped-Bottom Microplate (Fisher, Cat# 07-200-95) • Human PBMC (ALL Cells, Cat# PB002) • Resiquimod (InvivoGen, Cat No. tlrl-r848) • Human TNF-α DuoSet ELISA Kit (R&D Systems, Cat# DY210) • Recombinant Human IFN-β (Peprotech, Cat# 300-02BC) • RPMI with 10% FBS • Axygen 96well, 1.1 mL, sterile (VWR International, Cat# 47734-788)\nHuman peripheral blood mononuclear cells (PBMC) were seeded at 100,000 cells per well in 100 µL of RPMI with 10% FCS and primed overnight with 8 ng/ml of IFN-β at 37 °C, 5% CO2. Compound was serially diluted in DMSO from 2 mM in 3-fold dilutions, and then diluted 1:100 in RPMI 1640 complete media with 10% FBS (2 x stock). The PBMCs were pre-incubated with test compound for 1 hour at 37 °C, 5% CO2 by adding 100 µL of RPMI media containing 2x concentrated test compound per well (0.5% final DMSO concentration).\nThe PBMCs were stimulated with resiquimod (10 µL per well of 21x concentrated resiquimod solution in RPMI media to give a final concentration of 0.1 µg/ml) at 37 °C, 5% CO2 for an additional 18 hours. 100 µL of supernatant per well was harvested to measure TNF-α. TNF-α was quantitated using DuoSet ELISA Kit per manufacturer's protocol."}, "TLR2- induced TNF-α": {"tested_on": "TLR2- induced TNF-α", "test": "TLR2-induced TNF-α in human primary dendritic cells", "conditions": "human primary dendritic cells (DC); result in words"}}}
{"smiles": "CCO[C@H]1CC[C@H](n2cc(NC(=O)c3csc(-c4cn[nH]c4)n3)c(-c3ncccn3)n2)CC1", "note": "[Compound I-1, N-(1-((1r,4r)-4-ethoxycyclohexyl)-3-(pyrimidin-2-yl)-1H-pyrazol-4-yl)-2-(1H-pyrazol-4-yl)thiazole-4-carboxamide]", "values": [{"measurement": "TLR4-induced IL-23 production", "setting": "TLR4-induced IL-23", "value": "blocks"}, {"measurement": "TLR7-dependent cytokine production", "setting": "TLR7-induced TNF-α", "value": "potent inhibitor"}, {"measurement": "TLR2- induced TNF-α production", "setting": "TLR2- induced TNF-α", "value": "blocks"}]}
